B1: BMP4: a kind of BMP (bone morphogenetic protein) (protein, UniProt P12644 293-408, looked up)
Bone morphogenetic protein 4: SPKHHSQRARKKNKNCRRHSLYVDFSDVGWNDWIVAPPGYQAFYCHGDCPFPLADHLNSTNHAIVQTLVNSVNSSIPKACCVPTELSAISMLYLDEYDKVVLKNYQEMVVEGCGCR
B2: Noggin: a BMP inhibitor (naturally occurring protein) (protein, UniProt Q13253 28-232, looked up)
Noggin: QHYLHIRPAPSDNLPLVDLIEHPDPIFDPKEKDLNETLLRSLLGGHYDPGFMATSPPEDRPGGGGGAAGGAEDLAELDQLLRQRPSGAMPSEIKGLEFSEGLAQGKKQRLSKKLRRKLQMWLWSQTFCPVLYAWNDLGSRFWPRYVKVGSCFSKRSCSVPEGMVCKPSKSVHLTVLRWRCQRRGGQRCGWIPIQYPIISECKCSC

Columns and labels:
[1] = system: rat retinal ganglion cells; experiment: Menadione-induced retinal ganglion cell death, low-molecular ALK3 inhibitors (Example 2); type: cell-based; settings: 6 μM menadione; for dose dependence of cell death inhibitory effect: 100 nM to 10 μM K02288, 100 nM to 1 μM LDN-193189; for cell death inhibitory effect compared to the group treated with menadione alone / protection of cells from retinal ganglion cell death induced by menadione: 18 hours
Protocol: Rat retinal ganglion cells were isolated in the same manner as in Example 1. In the experimental system (FIG. 2A) of K02288 treatment, three rats were used; whereas, in the experimental system (FIG. 2B) of LDN-193189 treatment, two rats were used.
Retinal ganglion cells were suspended in RGC culture medium and seeded in the wells of a 96-well plate at a density of 1×10^4 cells/well and cultured at 37° C. under a 5% CO2 atmosphere for 24 hours. Twenty four hours later, the medium was removed. To a medium for a menadione reaction, 6 μM menadione and ALK3 inhibitors, i.e., K02288 (Tocris Bioscience) or LDN-193189 (MedChemExpress) (PLOS ONE 2013 8 (4) e62721) were added in accordance with the constitutions of individual groups. DMSO was added to a non K02288 treatment group or a non LDN-193189 treatment group, (a group treated with menadione alone). The cells were incubated at 37° C. for 18 hours and thereafter stained by use of LIVE/DEAD Viability/Cytotoxicity Kit (Thermo Fisher Scientific Inc.). Three photographs per well were taken by use of IncuCyte S3 live cell analysis system (Essen Bioscience) and analyzed. Data was calculated as the ratio of the number of survival cells relative to a total number of dead cells and survival cells. The RGC culture medium and medium for a menadione reaction used herein are the same as those used in Example 1.
Constitutions of groups (a group treated with K02288: n=8, a group treated with LDN-193189: n=6)
Control group: menadione was absent
A group treated with menadione alone: menadione and DMSO were added
A group treated with K02288 (3 groups: 100 nM, 1 μM, 10 μM): menadione and K02288 were added
A group treated with LDN-193189 (2 groups: 100 nM, 1 μM): menadione and LDN-193189 were added.

[2] = system: rat retinal ganglion cells; experiment: Menadione-induced retinal ganglion cell death, antibody/K02288 treatment (Example 1); type: cell-based; settings: 6 μM menadione, 18 hours, vs Normal IgG treatment group, n=3, FIG. 1C
Protocol: The retina was taken out from each of 7 days-old SD rats (13 rats) (Japan SLC Co., Ltd.) and retinal cells were dispersed by Dissociation Kit-Postnatal Neurons (Miltenyi Biotec). Thereafter, retinal ganglion cells (RGC) were isolated from other retinal cells by use of Retinal Ganglion Cell Isolation Kits (Miltenyi Biotec).
The retinal ganglion cells were suspended in RGC culture medium, seeded in the wells of a 96-well plate at a density of 2×10^4 cells/well and cultured at 37° C. under a 5% CO2 atmosphere for 24 hours. Twenty four hours later, the medium was removed. To a medium for a menadione reaction, 6 μM menadione, Normal rabbit IgG (Santa Cruz Biotechnology, Inc.), an anti-ALK3 antibody (Anti-BMPR1A antibody, Abcam plc.), an anti-ALK4 antibody (anti-Activin A receptor Type IB antibody, Abcam plc.) and an ALK3 inhibitor, i.e., K02288 (Tocris Bioscience) (PLOS ONE 2013 8 (4) e62721) were added in accordance with the constitutions of individual groups (described later) and incubation was performed at 37° C. for 18 hours. […] Three photographs per well were taken by IncuCyte S3 live cell analysis system (Essen Bioscience) and analyzed. Data was calculated as the ratio of the number of survival cells relative to a total number of dead cells and survival cells. […]

retinal ganglion cells = settings: mouse retina, Non Patent Literature 1; cited from earlier work
[3] = 1 μM test compound, FIGS. 2A and 2B

Row | Molecule | dose dependence of cell death inhibitory effect [1] | cell death inhibitory effect compared to the group treated with menadione alone [1, 3] | protection of cells from retinal ganglion cell death induced by menadione [1] | suppression of retinal ganglion cell death (ratio of survival cells to total cells) [2] | cell death inhibitory effect compared to the group treated with menadione alone ([1]; 10 μM test compound, FIG. 2A) | effect on retinal ganglion cell death induced by NMDA (retinal ganglion cells)
1 | c1ccc2c(-c3cnn4cc(-c5ccc(N6CCNCC6)cc5)cnc34)ccnc2c1 [LDN-193189, 4-[6-(4-piperazin-1-yl-phenyl)-pyrazolo[1,5-α]pyrimidin-3-yl]-quinoline] | cell death inhibitory effect in a dose-dependent manner | significant cell death inhibitory effect | exerted an effect to protect cells | – | – | –
2 | COc1cc(-c2cc(-c3cccc(O)c3)cnc2N)cc(OC)c1OC [K02288, 3-[6-amino-5-(3,4,5-trimethoxyphenyl)-3-pyridinyl]-phenol] | cell death inhibitory effect in a dose-dependent manner | significant cell death inhibitory effect | exerted an effect to protect cells | cell death was significantly suppressed | significant cell death inhibitory effect | –
3 | B1 | – | – | – | – | – | suppressed
4 | B2 | – | – | – | – | – | accelerated
